Laboratory results published in US20250161286A1 (AEVIS BIO, INC., priority 2022, published 2025).

Key:
Aiolos and Ikaros = Aiolos and Ikaros degradation by immunoblotting in MM.1S cells; assay type: cell-based, human
Description: To this end, the MM.1S cell line was cultured in an RPMI medium (Corning, MD, USA) supplemented with 10% fetal bovine serum (Corning, MD, USA), 100 U/ml of penicillin (Corning, MD, USA), and 100 μg/ml of streptomycin (Corning, MD, USA) at 37° C. in a 5% CO2 incubator. […] The cells were disrupted by adding a RIPA buffer containing a protease inhibitor cocktail (Thermo Fisher Scientific) and centrifuged at 14,000 rpm for 15 minutes at 4° C. to obtain a cell extract. Equal amounts of the cell extract were loaded, and proteins were separated through SDS-PAGE and then transferred to a PVDF membrane. The protein-transferred membrane was blocked using skim milk, incubated with a primary antibody for 3 hours at room temperature, and then incubated with an HRP-conjugated secondary antibody for 1 hour at room temperature. The resulting product was washed with TBS-T three times between steps. Detection was performed using a chemoluminescence reagent (Thermo Fisher Scientific), and confirmed using Chemidoc (iBright CL1500, Invitrogen, CA, USA). Aiolos (#15103), Ikaros (#9034) and GAPDH (#2118S) antibodies used as primary antibodies and a secondary antibody were purchased from Cell Signaling Technology (Danvers, MA, USA).
Additionally, the expression of Aiolos and Ikaros, mediated by 3-MP, was confirmed over time. […]

[1] = test system: mouse model with Parkinson's disease induced by MPTP administration; experiment: Pillar test in MPTP-induced Parkinson's disease mouse model; assay type: in vivo; settings: MPTP mice, oral
Description: (§1) To cause the disease, mice in the G2, G3, G4, and G5 groups were administered MPTP dissolved in saline via an intraperitoneal route at 2-hour intervals four times a day (20 mg/kg/time), while the G1 group received the same amount of saline.
Using a wooden pillar (length: 80 cm, diameter: 0.8˜1 cm) placed vertically on the cage floor, mice were trained to turn around from the top of the pillar in the opposite direction and descend to the bottom three times a day on days 2-3 of the test. On day 4 of the test, the same test was performed three times, and the time it took to change direction from the top and descend.

iNOS and COX-2 = iNOS and COX-2 expression in LPS-stimulated RAW264.7 cells (immunoblotting); assay type: cell-based, mouse; settings: RAW264.7 cells, 3.33, 10 or 30 μM, 60 ng/ml LPS, 24 hours
Description: To confirm an oxidative stress suppression effect, the expression levels of iNOS and COX-2 were confirmed.
To this end, the RAW264.7 cell line, which is a mouse macrophage cell line, was purchased from the Korea Cell Line Bank (KCLB, Korea) and used, and cultured in a DMEM medium (Corning, MD, USA) supplemented with 10% fetal bovine serum (Corning, MD, USA), 100 U/ml of penicillin (Corning, MD, USA), and 100 μg/ml of streptomycin (Corning, MD, USA) at 37° C. in a 5% CO2 incubator.
After 1 hour, the cells were stimulated by treatment with 60 ng/ml of LPS, and further cultured for 24 hours. The cells were disrupted by adding a RIPA buffer containing a protease inhibitor cocktail (Thermo Fisher Scientific) and centrifuged at 14,000 rpm for 15 minutes at 4° C. to obtain a cell extract. Equal amounts of the cell extract were loaded, and proteins were separated through SDS-PAGE and then transferred to a PVDF film. The protein-transferred membrane was blocked using skim milk, incubated with a primary antibody for 3 hours at room temperature, and then incubated with an HRP-conjugated secondary antibody for 1 hour at room temperature. The resulting product was washed with TBS-T three times between steps. […]

[2] = test system: mouse model with Parkinson's disease induced by MPTP administration; experiment: Grip strength test in MPTP-induced Parkinson's disease mouse model; assay type: in vivo; settings: MPTP mice
Description: as §1
A grip strength test was performed on day 6 of the test. When a mouse put on a grip strength measuring device (SLD-5FGN, Duratool, China) pulled a net of the device, the measuring device automatically measured the animal's grip strength and expressed it in grams. The average value was measured through five tests per individual.

[3] = Stability of 3-MP in human plasma (UPLC-MS); assay type: in vitro ADME
Description: To plot a standard calibration curve, the stock sample was diluted by half with acetonitrile from 125 to 0.39 μg/mL to prepare standard solutions for a total of 10 samples at different concentrations, and the calibration curve was plotted as shown in FIG. 6A.
For the experiment of verifying stability in plasma, 10 μL of the test drug prepared at a concentration of 100 μg/mL was added to 90 μL of human plasma and mixed for 30 seconds, and then immediately after the addition, the plasma-mixed test drug was incubated for 15, 30, 60, or 120 minutes to prepare samples. Afterward, 400 μL of 100% ethyl acetate was added to each sample and extracted using a vortex mixture for 1 minute. […] Initially, the mobile phase B was increased from 5% to 95% until 9 minutes and analyzed, the mobile phase B was maintained 95% until 12 minutes, and then the mobile phase B was lowered to 5% and equilibrated, and used in the subsequent analysis. the flow rate of the mobile phase was 0.3 mL/min, the sample injection volume was 2 μL, and the mass spectrometer was operated in the ESI-positive mode. The spray voltage was set to 3.5 kV, and the flow rates of the nitrogen sheath gas, auxiliary gas, and sweep gas were analyzed as 50, 10, and 1 (arbitrary units), respectively. […]

stability in plasma over time ([3]; 0 to 120 minutes): maintained without significant changes | plasma level ([3]; immediately after plasma addition (0 minutes)): 80 µg/mL
SMILES: Nc1cccc2c1C(=S)N(C1CCC(=O)NC1=O)C2=O (stereo not drawn) [3-MP, 3-thiopomalidomide]
expression of Aiolos and Ikaros over time (Aiolos and Ikaros; 10 μM, 1, 4, 8, 12 or 24 hours): does not reduce the expression of Aiolos and Ikaros | expression of Aiolos and Ikaros (Aiolos and Ikaros; 0.000128-10 μM, 4 hours): does not reduce the expression of Aiolos and Ikaros | pillar descent time ([1]; 90 mg/kg): recovered to a level similar to that of the vehicle administration group | pillar descent time ([1]; all doses (10, 30, 90 mg/kg/day), versus MPTP group): reduced to a statistically significant level | expression of iNOS and COX-2 (protein) (iNOS and COX-2): inhibit the expression of iNOS and COX-2 | grip strength ([2]; oral, 90 mg/kg): recovered to a level similar to that of the vehicle administration group | grip strength ([2]; oral, 10, 30, 90 mg/kg/day, versus MPTP group): increased in a concentration-dependent manner
